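1) Cells in 96-well plates. 2) Compound, 48 h, 5 concentrations. 3) Linear interpolation between surrounding doses. 4) Unreached endpoint = highest concentration. GI50: concentration for 50% inhibition of growth. TGI: concentration producing complete growth inhibition.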

Experiment in all cases: NCI tumour cell line growth inhibition, 48 h
Assay [1] has as its system PC-3 prostate.
Assay [2] relates to EKVX NSCLC.
The subject of assay [3] is COLO 205 colon.
Assay [4] deals with BT-549 breast.
For assay [5], the system named is SK-MEL-5 melanoma.
Assay [6] relates to SR leukemia.
Assay [7] relates to ACHN renal.
Assay [8] deals with RPMI-8226 leukemia.
Assay [9] concerns MALME-3M melanoma.
Assay [10] concerns SNB-75 CNS.

In the case of `N#CC1C(N)=NNC12Nc1ccccc1S2` (stereo not drawn), the GI50 is 14.1 µM in assay [1]; 15.4 µM in [2]; 26.5 µM in [3]; 18.7 µM in assay [4]; 8.93 µM in assay [5]; 8.81 µM in assay [6]. The GI50 in assay [7] was 20.1 µM; in assay [8] it was 26.3 µM. Moreover, the TGI in assay [1] is above 100 µM; in assay [2] it was 60.9 µM; in assay [3], 82.5 µM; in assay [4] it was 57.4 µM; in [5] it was 28.7 µM; in assay [6], 29.9 µM. Further, the TGI in assay [7] was 53.3 µM; in assay [8], above 100 µM.

With `O=[N+]([O-])c1cc(Cc2cc([N+](=O)[O-])c3cccnc3c2O)c(O)c2ncccc12`, the TGI in assay [9] was 25.5 µM; in [1] it was 23.4 µM; in assay [2], 61.9 µM; in assay [3], 56 µM; in [4], above 77.7 µM; in assay [5], 24.5 µM. For the same compound, the TGI was 24.9 µM in assay [10], 41.3 µM in assay [7] and 41.4 µM in [8].

For the compound `COc1ccc2nc3cc(Cl)ccc3c(N3CCN(c4ccnc(N5CCN(C)CC5)n4)CC3)c2c1`, the GI50 in assay [9] was 2.2 µM; in [1] it was 1.92 µM; in assay [3] it was 1.94 µM; in [4] it was 3.16 µM; in assay [5], 11.3 µM; in [10] it was 1.47 µM. In addition, the values for the GI50 in assay [6], in [7] and in assay [8] were 2.19 µM, 1.75 µM and 2.04 µM, respectively. Moreover, the TGI was found to be 4 µM in assay [9]; 3.87 µM in assay [1]; 3.67 µM in assay [3]; 13.4 µM in [4]; 28 µM in assay [5]; 3.05 µM in [10]. Also, the TGI in [6] turned out to be 5.94 µM; in assay [7], 3.33 µM; in assay [8], 4.84 µM.

Take `Cn1c(C(=O)c2cccc3ccccc23)nc2ccccc21`: the GI50 in assay [9] was above 100 µM; in assay [1] it was above 100 µM; in assay [3], above 100 µM; in assay [4] it was above 100 µM; in assay [5] it was above 100 µM; in assay [10] it was 15.3 µM. Further, the GI50 in assay [6], in assay [7] and in assay [8] was above 100 µM throughout. The TGI in assay [9], in assay [1], in [3], in assay [4], in [5] and in assay [10] was above 100 µM each time. Moreover, the TGI in assay [6], in [7] and in [8] was above 100 µM each time.

As to `COc1ccc(-c2c3c(N)c4c(nc3nc3c2c(C)nn3-c2ccccc2)CCCC4)cc1`, the GI50 was 2.54 µM in [1]; 2.32 µM in assay [3]; 17.2 µM in assay [4]; 1.84 µM in assay [5]; 14 µM in assay [10]; 1.84 µM in assay [6]. The GI50 is 4.32 µM in assay [7] and 1.92 µM in [8]. Moreover, the TGI in [1] was 10.9 µM; in assay [3], 5.91 µM; in [4] it was 33.8 µM; in assay [5], 3.85 µM; in assay [10] it was 31.8 µM; in [6], 5.01 µM. Also, the TGI worked out at 15.1 µM in assay [7] and 4.32 µM in assay [8].

With `CC(=O)N(O)c1ccc(/C=C/c2ccccc2)cc1`, the GI50 in assay [9] is above 66.6 µM; in [1], 2.32 µM; in assay [3] it was 3.34 µM; in assay [4], 2.59 µM; in assay [5], 6.05 µM; in assay [10], 0.883 µM. Further, the GI50 in assay [6] was 0.244 µM; in assay [7], 0.26 µM; in assay [8], 3.21 µM. For the same compound, the TGI in assay [9] is above 100 µM; in [1] it was above 100 µM; in [3], 44 µM; in assay [4], 20.5 µM; in assay [5] it was above 100 µM; in assay [10], 4.59 µM. The TGI was above 100 µM in [6], 2.08 µM in assay [7] and above 100 µM in assay [8].

Turning to `Cc1cc2c(c(=O)o1)C1=S(SC(c3ccccc3)=C1)S2` (stereo not drawn), the TGI in [9] is 86.7 µM; in assay [1] it was 65.1 µM; in [3], above 100 µM; in assay [4] it was above 100 µM; in assay [5] it was above 100 µM; in assay [10], 94.5 µM. Besides, the TGI in assay [6] was 38.5 µM; in assay [7] it was above 100 µM; in [8], above 100 µM.

Take `CC(C)N(Cc1ccc(F)cc1)c1ccc(CO)c(Cl)c1`: the GI50 in assay [9] is 14.4 µM; in [1], 11.4 µM; in [3], 1.03 µM; in assay [4] it was 12.3 µM; in assay [5] it was 8.67 µM; in [10] it was 9.21 µM. Moreover, the GI50 in assay [6] was 12.8 µM; in assay [7] it was 8.08 µM; in [8], 1.46 µM. In addition, the TGI in assay [9] was 30.3 µM; in assay [1], 24.2 µM; in [3] it was 7.17 µM; in assay [4] it was 25.7 µM; in assay [5] it was 21.8 µM; in assay [10], 23.3 µM. Further, the TGI in assay [6] came out at 32.5 µM; in [7], 20.9 µM; in assay [8], 20.1 µM.

Turning to `CCN(Cc1ccc(F)cc1)c1ccc(CO)c(C(F)(F)F)c1`, the GI50 in [9] is 15.5 µM; in assay [1], 12.1 µM; in assay [3], 14.4 µM; in assay [4], 15.1 µM; in assay [5] it was 13.9 µM; in [10], 14.3 µM. Besides, the GI50 in assay [7] is 14.6 µM; in [8], 11.7 µM. Also, the TGI in assay [9] was 30.3 µM; in assay [1], 25.7 µM; in assay [3] it was 27.5 µM; in assay [4], 28.3 µM; in assay [5], 26.8 µM; in assay [10] it was 30.6 µM. In addition, the TGI in assay [7] turned out to be 27.8 µM; in assay [8], 45.2 µM.
